Data on four molecules can be found in US20240084002A1, “METHODS AND COMPOSITIONS UTILIZING IDO1-DEPENDENT VASCULARIZING CELLS FOR THE TREATMENT OF PATHOLOGICAL CONDITIONS INVOLVING NEOVASCULARIZATION” (LANKENAU INSTITUTE FOR MEDICAL RESEARCH, priority 2020, published 2024).

Read-outs that look alike come from different tables or passages of the source. Some results are limits rather than exact numbers.

The target of data set [1] is T1, IDO1 (Homo sapiens, UniProt P14902).
T1 construct: endogenous in cells; host or cells: U937 (ATCC CRL-1593.2) and HL60 (ATCC CCL-240), stimulated with IFNγ + LPS
T1 sequence (P14902 whole entry): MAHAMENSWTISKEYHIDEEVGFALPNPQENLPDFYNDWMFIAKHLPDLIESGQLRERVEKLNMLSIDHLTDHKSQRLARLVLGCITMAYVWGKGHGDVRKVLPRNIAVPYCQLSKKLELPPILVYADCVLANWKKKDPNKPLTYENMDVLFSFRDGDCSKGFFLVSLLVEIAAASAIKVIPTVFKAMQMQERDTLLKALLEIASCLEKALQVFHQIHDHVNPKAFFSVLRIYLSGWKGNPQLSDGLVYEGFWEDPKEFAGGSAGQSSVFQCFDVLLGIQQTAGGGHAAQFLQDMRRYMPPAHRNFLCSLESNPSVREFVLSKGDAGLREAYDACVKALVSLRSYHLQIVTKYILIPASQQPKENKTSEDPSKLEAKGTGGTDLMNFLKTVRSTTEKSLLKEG
Description: Kynurenine levels in supernatants of IFNγ+LPS treated U937 and HL60 cells (IDO1 activity). The class given is cell-based. The conditions noted are these: inhibitor 1 μM, 24 hr. Here is the method:
Kynurenine assay. Levels of kynurenine in U937 and HL60 cell supernatants were measured using Ehrlich's reagent (p-dimethylamino-benzaldehyde). Following treatments, supernatants were collected and transferred to a V-bottom 96-well plate and mixed with 40 μL 50% (w/v) trichloroacetic acid (TCA; LabChem) to precipitate any protein. The plate was then incubated at 65° C. for 30 minutes followed by centrifugation at 1250×g for 10 minutes. Following centrifugation, 100 μL of clarified supernatant was transferred to a new flat-bottomed 96-well plate and mixed at equal volumes with 2% (w/v) Ehrlich's reagent in acetic acid. The resulting reaction was measured at 490 nm using a Synergy HT microtiter plate reader (Bio-Tek). Vitreous humor was collected from eyes of mice that underwent the OIR process. Levels of kynurenine were measured using the IDK® Kynurenin ELISA kit (Immundiagnostik AG, Bensheim, Germany) according to manufacturer's protocol. Additionally, levels of kynurenine were confirmed by high-performance liquid chromatography (HPLC) coupled to electrospray ionization liquid chromatography/ tandem mass spectroscopy (LC/MS-MS) as described (18).

For data set [2], the system named is U937 and HL60 cells. Kind of data set: Viability assay (LDI Cell CountEZ TPS assay kit). The conditions noted are these: IFNγ+LPS, at the concentrations used (1 μM), 24 hrs.
Description: (§2) Viability assay. Cell viability in U937 and HL60 cells was measured by LDI Cell CountEZ™ toxicity, proliferation and survival (TPS) assay kit (LDI1201™) as per the manufacturer's protocol. Both cell lines were plated at a density of 10,000 cells/ well of a 96 well plate in 100 μl DMEM medium with 10% FBS. […] Bortezomib (20 nM; LC Laboratories, Cat# B-1408) was used as positive control for inducing cellular apoptosis. Treated cells were incubated at 37° C. in a humidified CO2 incubator for 24 hrs. The TPS assay was then performed with cell viability assessed by reading absorbance at 412 nm in a microtiter plate reader.
In data set [3] the test system is IL6 gene expression. Description: qPCR of IFNγ+LPS mediated induction of IL6 gene expression in U937 and HL60 cells. The class given is cell-based, human. The conditions noted are these: inhibitor 1 μM, 24 hr. From the text:
(§1) Quantitative real time PCR analysis.
(Quantitative PCR measures a nucleic acid by following its amplification.)

Another data set deals with CYP1A1. Description: qPCR of IFNγ+LPS mediated induction of CYP1A1 in U937 and HL60 cells (AHR activation). The conditions noted are these: inhibitor 1 μM, 24 hr.
The next data set deals with Gr-1+ CD11b^lo cells. Description: Matrigel plug assay, neovascular density. The class given is in vivo, mouse. The conditions noted are these: plugs with WT Gr-1+ CD11b^lo cells in WT mice, 50 mg/kg oral gavage b.i.d. for the final 3 days, plugs resected at day 9. Here is the method: Matrigel Plug Assay. To assess the in vivo neovascularizing capability of select immune cell populations isolated from 4T1 pulmonary metastases, 5×10^4-2×10^6 sorted cells were isolated (as indicated in the corresponding figure legends) by fluorescence-activated cell sorting (BD FACSAria III) into RPMI+10% FCS and put on ice. Immediately following sorting, isolated immune cell populations were suspended in 250 μl PBS and combined with 250 μl Matrigel (Corning® Cat# 356237) per plug on ice for in vivo injections. Plugs were established by subcutaneous injection in the dorsal region of recipient mice using an ice-cold syringe with a 21 gauge needle. […] After 9 days post injection, the matrigel plug was harvested and images recorded with either a Samsung Galaxy S6 or an iPhone X using the 2× lens with an additional 10× macro lens attachment (Moment).
For blood vessel quantification, the Matrigel plugs were blocked in OCT and cryosectioned using the tape transfer method ([…] per plug). Following sectioning, neovascularization was visualized under confocal microscope by fluorescence staining with rabbit anti-mouse for caveolin 1 and quantitatively analyzed using Adobe Photoshop as described above. Statistical Analysis. […] Significance for Kaplan-Meier survival curves was determined by 2-group log-rank test. […]

In a further data set the test system is ATF4. Kind of data set: qPCR of IFNγ+LPS mediated induction of ATF4 in U937 and HL60 cells (ISR activation). The class given is cell-based, human. The conditions noted are these: inhibitor 1 μM, 24 hr.
Description: as §1

The next data set concerns CHOP. Kind of data set: qPCR of IFNγ+LPS mediated induction of CHOP in U937 and HL60 cells (ISR activation). The conditions noted are these: inhibitor 1 μM, 24 hr. It is filed as cell-based, human.
Description: as §1

Another data set concerns NOS2. Kind of data set: NOS2 staining of 4T1 lung metastases. The conditions noted are these: WT mice with 4T1 lung metastases, 50 mg/kg p.o. b.i.d. over 3 days. It is filed as in vivo, mouse.
In the next data set the test system is 4T1 metastases. The conditions noted are these: prior finding, reference (7); cited from earlier work.
Data set [4] concerns U937 and HL60 cells. The conditions noted are these: human, 24 h, 1 μM.
Description: as §2
For data set [5], the system named is IL6 gene expression. The conditions noted are these: U937 and HL60 cells, previously shown, reference (9); cited from earlier work.
The target in data set [6] is T1, IDO1. The conditions noted are these: U937 and HL60 cells, previously shown, reference (9); cited from earlier work.

Description for CYP1A1: Cell culture. The 4T1 (mouse mammary carcinoma; ATCC Cat# CRL-2539) and U937 (human histiocytic lymphoma; ATCC Cat# CRL-1593.2) cell lines were cultured in DMEM supplemented with penicillin, streptomycin, 10% FBS and 55 μM β-mercaptaethanol. The HL60 (human promyelocytic leukemia; ATCC Cat# CCL-240) cell line was maintained in IMDM media supplemented with 10% FCS plus 55 μM β-mercaptaethanol, 2 mM glutamax (Life Technologies), and 50 μg/ml gentamicin. […] No mycoplasma testing was done on the U937 or HL60 cell lines. […] In vitro experiments were performed with U937 and HL60 cells maintained no longer than passage 6. […] At 24 hr mRNA was prepared from the treated cells for qPCR-based analysis of gene expression and cell culture media was analyzed for levels of kynurenine to assess IDO1 enzymatic activity.
Quantitative real time PCR analysis. […] Quantitative PCR (QPCR) reactions were run using the Fast Start Universal SYBR Green Mix (Roche Applied Science) with an Eppendorf Realplex 4 Mastercycler QPCR machine. Levels of mRNA expression detected with primers specific for Atf4, Chop Il6 and Cyp1a1 (Tables 1-3) were normalized to 18S mRNA levels and differences between treatment groups were analyzed using the δ-δ cycle threshold method.

On to `C[C@@H](CO)NC(=O)c1cc(-c2ccc(Cl)cc2)nn(-c2cccc(F)c2)c1=O` [BAY-218], for which the “effect on the level of kynurenine produced” value on IDO1 [1] was “neither had a significant effect”. In the data set with U937 and HL60 cells [2], the “impact on cell viability” value is reported as “Neither ISRIB, Epacadostat nor BAY-218 had a sufficient impact on cell viability”. Further, in the data set with IL6 gene expression [3], the “effect on IL6 gene expression” value is reported as “no significant effect”. The “effect on induction of CYP1A1 message” value in the data set on CYP1A1 is listed as “blocked induction of CYP1A1”.
Consider `NS(=O)(=O)NCCNc1nonc1C(=NO)Nc1ccc(F)c(Br)c1` [Epacadostat], for which the “degree of neovascularization in Matrigel plugs” value in the data set on Gr-1+ CD11b^lo cells was “decreased the degree of neovascularization promoted by CD11b^lo cells to a level quantifiably indistinguishable from CD11b^hi cells”. Besides, the “effect on induction of ATF4 message” value in the data set on ATF4 is “effectively blocked”. The “effect on induction of CHOP message” value with CHOP is “effectively blocked”. Further, in the data set on NOS2, the “NOS2 expression within lung metastases” value is given as “elicits NOS2 elevation”. The “blood vessel formation within established 4T1 metastases” value with 4T1 metastases is on record as “reverses blood vessel formation”. Moreover, the “reduction IL6 gene expression” value in the data set on IL6 gene expression [3] is no less than 99%. Besides, the “impact on cell viability” value in the data set on U937 and HL60 cells [4] is recorded as “Neither ISRIB, Epacadostat nor BAY-218 had a sufficient impact on cell viability”.
As for `O=C(COc1ccc(Cl)cc1)NC1CCC(NC(=O)COc2ccc(Cl)cc2)CC1` (stereo not drawn) [ISRIB], the “effect on induction of ATF4 message” value in the data set on ATF4 is given as “blocked induction”. Besides, the “effect on induction of CHOP message” value in the data set on CHOP is on record as “blocked induction”. At IDO1 [1], the “effect on the level of kynurenine produced” value was “neither had a significant effect”. Further, the “impact on cell viability” value with U937 and HL60 cells [2] was “Neither ISRIB, Epacadostat nor BAY-218 had a sufficient impact on cell viability”. Also, the “effect on IL6 gene expression” value in the data set on IL6 gene expression [3] is recorded as “effectively blocked”.
As for “methylthiohydantoin-DL-tryptophan [MTH-Trp]”, in the data set on IL6 gene expression [5], the “corresponding increase in IL6” value is reported as “could be blocked”. Besides, the “IFNγ+LPS-mediated induction of IDO1 activity” value on IDO1 [6] is given as “could be blocked”.
